The text below walks through data of ChEMBL document CHEMBL3396986, “Novel β-amyloid aggregation inhibitors possessing a turn mimic” (Bioorg Med Chem Lett, 2015).

Calls of active or inactive are those of the source. No cut-off for these calls is given here. *1 amine or outer side, *2 acyl side, *3 side chain or, on linkers, in order; H or OH if unused. Where a SMILES comes first, the peptide text is derived from it. [ ]: non-standard residue; d: D form. X1 = O=C(CCc1cccc2c1oc1c(CCN[*:1])cccc12)[*:2]; PEG8 = NCCOCCOCCOCCOCCOCCOCCOCCOCCC(=O)O; Met(O) = CS(=O)CC[C@H](N)C(=O)O Where only a bound is given, the exact number is not on record here.

Experiment [1] addresses Amyloid-beta precursor protein (Homo sapiens) (UniProt P05067). Nature of the experiment: Inhibition of pH-click Amyloid beta (1 to 42) (unknown origin) aggregation after 24 hrs by Thioflavin-T fluorescence assay. Also on record: concentration or dose not given beside the values. As to conditions: concentration not given here.
For experiment [2] the target is unchanged. The experiment in a line: Inhibition of pH-click Amyloid beta (1 to 42) (unknown origin) aggregation after 48 hrs by Thioflavin-T fluorescence assay. On the set-up: concentration or dose not given beside the values. The conditions noted are these: concentration not given here.
Experiment [3] shares this target. Nature of the experiment: Inhibition of authentic Amyloid beta (1 to 42) (unknown origin) aggregation 6 to 48 hrs by Thioflavin-T fluorescence assay.
Experiment [4] has the same target. Nature of the experiment: Inhibition of pH-click Amyloid beta (1 to 42) (unknown origin) aggregation 6 to 48 hrs by Thioflavin-T fluorescence assay.

Amyloid-beta precursor protein (Homo sapiens), sequence (P05067 whole entry): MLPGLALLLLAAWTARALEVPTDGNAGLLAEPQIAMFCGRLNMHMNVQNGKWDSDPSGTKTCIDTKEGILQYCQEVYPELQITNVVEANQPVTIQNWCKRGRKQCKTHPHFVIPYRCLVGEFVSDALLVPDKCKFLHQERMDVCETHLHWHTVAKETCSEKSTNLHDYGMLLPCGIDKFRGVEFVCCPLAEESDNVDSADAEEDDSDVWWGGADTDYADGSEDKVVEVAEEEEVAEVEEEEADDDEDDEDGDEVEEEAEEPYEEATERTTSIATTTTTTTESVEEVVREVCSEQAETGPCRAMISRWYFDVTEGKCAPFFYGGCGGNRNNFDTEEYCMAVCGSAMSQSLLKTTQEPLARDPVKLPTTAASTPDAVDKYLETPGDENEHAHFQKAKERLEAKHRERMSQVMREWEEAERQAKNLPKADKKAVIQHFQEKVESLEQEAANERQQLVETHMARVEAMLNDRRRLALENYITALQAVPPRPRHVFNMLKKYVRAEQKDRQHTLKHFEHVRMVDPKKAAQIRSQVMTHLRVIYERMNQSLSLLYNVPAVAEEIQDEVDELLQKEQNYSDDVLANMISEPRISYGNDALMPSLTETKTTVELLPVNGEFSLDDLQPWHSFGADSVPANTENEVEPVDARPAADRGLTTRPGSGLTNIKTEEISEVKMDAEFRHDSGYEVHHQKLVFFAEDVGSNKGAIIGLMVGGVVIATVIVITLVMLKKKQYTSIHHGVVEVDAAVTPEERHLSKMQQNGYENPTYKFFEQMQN

By inhibition is commonly meant how much of the control response was suppressed. As to `CC[C@H](C)[C@H](NC(=O)CCc1cccc2c1oc1c(CCNC(=O)[C@H](CCCCN)NC(=O)[C@H](CC(N)=O)NC(=O)[C@H](CO)NC(=O)CNC(=O)CCOCCOCCOCCOCCOCCOCCOCCOCCN)cccc12)C(=O)NCC(=O)N[C@@H](CC(C)C)C(=O)N[C@@H](CC[S+](C)[O-])C(=O)O` (some centres undefined) (H-[PEG8]GSNK[X1]IGL[Met(O)]-OH), the results for the inhibition in experiment [1] and in experiment [2] were 9% and below 5%, respectively.

Turning to `CC[C@H](C)[C@H](NC(=O)CCc1cccc2c1oc1c(CCNC(=O)[C@H](CCCCN)NC(=O)[C@H](CC(N)=O)NC(=O)[C@H](CO)NC(=O)CN)cccc12)C(=O)NCC(=O)N[C@@H](CC(C)C)C(=O)N[C@@H](CC[S+](C)[O-])C(=O)NCCOCCOCCOCCOCCOCCOCCOCCOCCC(=O)O` (some centres undefined) (H-GSNK[X1]IGL[Met(O)][PEG8]-OH), the inhibition in experiment [1] was 12%; in experiment [2], below 5%.

On to `CC[C@H](C)[C@H](NC(=O)[C@H](C)NC(=O)CNC(=O)CCc1cccc2c1oc1c(CCNC(=O)CNC(=O)[C@@H](NC(=O)[C@H](CC(=O)O)NC(=O)[C@@H](N)CCC(=O)O)C(C)C)cccc12)C(=O)N[C@H](C(=O)NCCOCCOCCOCCOCCOCCOCCOCCOCCC(=O)O)[C@@H](C)CC` (H-EDVG[X1]GAII[PEG8]-OH), for which the inhibition in experiment [1] amounted to 16%; in experiment [2] it was 20%.

As to `CC[C@H](C)[C@H](NC(=O)CCc1cccc2c1oc1c(CCNC(=O)[C@H](CC(N)=O)NC(=O)[C@H](CO)NC(=O)CNC(=O)[C@@H](NC(=O)CCOCCOCCOCCOCCOCCOCCOCCOCCN)C(C)C)cccc12)C(=O)N[C@H](C(=O)NCC(=O)N[C@@H](CC(C)C)C(=O)O)[C@@H](C)CC` (H-[PEG8]VGSN[X1]IIGL-OH), the inhibition in experiment [1] and in experiment [2] was 56% throughout.

Consider H-KLVFFA-OH, for which the inhibition result in experiment [3] and in experiment [4] was “Active” in each case.

Regarding `CC[C@H](C)[C@H](NC(=O)[C@H](C)NC(=O)CCc1cccc2c1oc1c(CCNC(=O)[C@H](CO)NC(=O)CNC(=O)[C@@H](NC(=O)[C@H](CC(=O)O)NC(=O)CCOCCOCCOCCOCCOCCOCCOCCOCCN)C(C)C)cccc12)C(=O)N[C@H](C(=O)NCC(=O)O)[C@@H](C)CC` (H-[PEG8]DVGS[X1]AIIG-OH), the values for the inhibition in experiment [1] and in experiment [2] were 10% and below 5%, respectively.

`CC(C)C[C@@H](NC(=O)[C@H](N)CCCCN)C(=O)N[C@@H](C(=O)N[C@H](Cc1ccccc1)C(=O)N[C@H](Cc1ccccc1)C(=O)N[C@H](C)C(=O)O)C(C)C` (H-[dK][dL][dV][dF][dF][dA]-OH): the inhibition entry in experiment [3] and in experiment [4] was “Active” each time.

In the case of `CC[C@H](C)[C@H](NC(=O)[C@@H](NC(=O)[C@H](C)NC(=O)CNC(=O)CCc1cccc2c1oc1c(CCNC(=O)CNC(=O)[C@@H](NC(=O)[C@H](CC(=O)O)NC(=O)[C@H](CCC(=O)O)NC(=O)CCOCCOCCOCCOCCOCCOCCOCCOCCN)C(C)C)cccc12)[C@@H](C)CC)C(=O)O` (H-[PEG8]EDVG[X1]GAII-OH), the figures for the inhibition in experiment [1] and in experiment [2] were 13% and below 5%, respectively.

For `CC[C@H](C)[C@H](NC(=O)[C@H](C)NC(=O)CCc1cccc2c1oc1c(CCNC(=O)[C@H](CO)NC(=O)CNC(=O)[C@@H](NC(=O)[C@@H](N)CC(=O)O)C(C)C)cccc12)C(=O)N[C@H](C(=O)NCC(=O)NCCOCCOCCOCCOCCOCCOCCOCCOCCC(=O)O)[C@@H](C)CC` (H-DVGS[X1]AIIG[PEG8]-OH), the inhibition in experiment [1] and in experiment [2] was below 5% in each case.

With `CC(C)C[C@H](NC(=O)CNC(=O)CCc1cccc2c1oc1c(CCNC(=O)CNC(=O)[C@H](CCCCN)NC(=O)[C@H](CC(N)=O)NC(=O)[C@@H](N)CO)cccc12)C(=O)N[C@@H](CC[S+](C)[O-])C(=O)N[C@H](C(=O)NCCOCCOCCOCCOCCOCCOCCOCCOCCC(=O)O)C(C)C` (some centres undefined) (H-SNKG[X1]GL[Met(O)]V[PEG8]-OH), the figures for the inhibition in experiment [1] and in experiment [2] were 7% and below 5%, respectively.

As for `CC[C@H](C)[C@H](NC(=O)CCc1cccc2c1oc1c(CCNC(=O)[C@H](CC(N)=O)NC(=O)[C@H](CO)NC(=O)CNC(=O)[C@@H](N)C(C)C)cccc12)C(=O)N[C@H](C(=O)NCC(=O)N[C@@H](CC(C)C)C(=O)NCCOCCOCCOCCOCCOCCOCCOCCOCCC(=O)O)[C@@H](C)CC` (H-VGSN[X1]IIGL[PEG8]-OH), the values for the inhibition in experiment [1] and in experiment [2] were 49% and 39%, respectively.

In the case of `CC(C)C[C@H](NC(=O)CNC(=O)CCc1cccc2c1oc1c(CCNC(=O)CNC(=O)[C@H](CCCCN)NC(=O)[C@H](CC(N)=O)NC(=O)[C@H](CO)NC(=O)CCOCCOCCOCCOCCOCCOCCOCCOCCN)cccc12)C(=O)N[C@@H](CC[S+](C)[O-])C(=O)N[C@H](C(=O)O)C(C)C` (some centres undefined) (H-[PEG8]SNKG[X1]GL[Met(O)]V-OH), the inhibition in experiment [1] is 13%; in experiment [2], below 5%.
